Laboratory results reported in ChEMBL document CHEMBL3046811, “Syntheses and in vitro biological screening of 1-aryl-10H-[1,2,4]triazolo[3,4:3,4][1,2,4]triazino[5,6-b]indoles” (Med Chem Res, 2013).

Tests used:
[1] = tested on: Mammalian orthoreovirus 1; test: Antiviral activity against Mammalian orthoreovirus 1 infected Syrian hamster BHK-21 cells assessed as protection against virus-induced cytopathogenicity treated 1 hr after viral infection measured after 3-4 days by MTT method; type: functional, organism-based; conditions: Mammalian orthoreovirus 1, BHK-21
[2] = tested on: Human immunodeficiency virus 1; test: Antiviral activity against Human immunodeficiency virus 1 infected human MT4 cells assessed as protection against virus-induced cytopathogenicity treated before viral infection measured after 4 days by MTT assay; type: functional, organism-based; conditions: Human immunodeficiency virus 1, MT4, 96 h
[3] = Cytotoxicity against Bos taurus (bovine) MDBK cells assessed as inhibition of cell viability after 48 to 120 hr by MTT assay; type: cell-based; conditions: cattle
[4] = Cytotoxicity against Chlorocebus aethiops (African green monkey) Vero 76 cells assessed as inhibition of cell viability after 48 to 120 hr by MTT assay; type: cell-based; conditions: chlorocebus sabaeus
[5] = tested on: Respiratory syncytial virus; test: Antiviral activity against Respiratory syncytial virus infected African green monkey Vero 76 cells assessed as reduction in plaque number treated after viral infection measured after 5 days by plaque reduction assay; type: functional, organism-based; conditions: human respiratory syncytial virus, 120 h
[6] = Selectivity index, ratio of CC50 for bovine MDBK cells to EC50 for BVDV infected in bovine MDBK cells
[7] = Cytotoxicity against Mesocricetus auratus (Syrian golden hamster) BHK21cells assessed as inhibition of cell viability after 48 to 120 hr by MTT assay; type: cell-based; conditions: BHK-21 cells
[8] = Cytotoxicity against Homo sapiens (human) MT4 cells assessed as inhibition of cell vaibility after 96 hr by MTT assay; type: cell-based
Coxsackievirus B2 = test: Antiviral activity against Human coxsackievirus B2 infected in African green monkey Vero 76 cells assessed as reduction in plaque number treated after viral infection measured after 3 days by plaque reduction assay; type: functional, organism-based; conditions: Enterovirus B, 72 h
[9] = tested on: Bovine viral diarrhea virus 1; test: Antiviral activity against Bovine viral diarrhea virus 1 infected bovine MDBK cells assessed as protection against virus-induced cytopathogenicity treated 1 hr after viral infection measured after 3-4 days by MTT method; type: functional, organism-based; conditions: Bovine viral diarrhea virus isolates and strains
Human alphaherpesvirus 1 = test: Antiviral activity against Human herpesvirus 1 infected African green monkey Vero 76 cells assessed as reduction in plaque number treated after viral infection measured after 3 days by plaque reduction assay; type: functional, organism-based; conditions: Human alphaherpesvirus 1, Vero, 72 h
[10] = tested on: Vesicular stomatitis virus; test: Antiviral activity against Vesicular stomatitis virus infected African green monkey Vero 76 cells assessed as reduction in plaque number treated after viral infection measured after 2 days by plaque reduction assay; type: functional, organism-based; conditions: 48 h
Yellow fever virus = test: Antiviral activity against Yellow fever virus infected Syrian hamster BHK-21 cells assessed as protection against virus-induced cytopathogenicity treated 1 hr after viral infection measured after 3-4 days by MTT method; type: functional, organism-based
Poliovirus 1 = test: Antiviral activity against Human poliovirus 1 strain Sabin infected African green monkey Vero 76 cells assessed as reduction in plaque number treated after viral infection measured after 2 days by plaque reduction assay; type: functional, organism-based; conditions: Enterovirus C, 48 h
Vaccinia virus = test: Antiviral activity against Vaccinia virus infected African green monkey Vero 76 cells assessed as reduction in plaque number treated after viral infection measured after 3 days by plaque reduction assay; type: functional, organism-based; conditions: Orthopoxvirus vaccinia, 72 h

SMILES	EC50 [1] [µM]	EC50 [2] [µM]	CC50 [3] [µM]	CC50 [4] [µM]	EC50 [5] [µM]	Ratio CC50/EC50 [6]	CC50 [7] [µM]	CC50 at 96 h [8] [µM]	EC50 (Coxsackievirus B2) [µM]	EC50 [9] [µM]	EC50 (Human alphaherpesvirus 1) [µM]	EC50 [10] [µM]	EC50 (Yellow fever virus) [µM]	EC50 (Poliovirus 1) [µM]	EC50 (Vaccinia virus) [µM]
c1ccc2c(-c3nnc4nnc5c6ccccc6[nH]c5n34)c3ccccc3cc2c1	> 100	> 56	> 100	≥ 100	> 100	>33.33	> 100	56	> 100	3	> 100	–	–	–	–
COc1cc(-c2nnc3nnc4c5ccccc5[nH]c4n23)ccc1O	25	> 58	> 100	80	> 80	>1.11	45	58	> 80	90	> 80	> 80	> 45	> 80	> 80
COc1ccc(-c2nnc3nnc4c5ccccc5[nH]c4n23)cc1	> 100	> 100	> 100	> 100	> 100	–	> 100	> 100	> 100	> 100	> 100	> 100	> 100	> 100	> 100
c1ccc(-c2nnc3nnc4c5ccccc5[nH]c4n23)cc1	> 100	> 100	> 100	> 100	> 100	–	> 100	> 100	> 100	> 100	> 100	> 100	> 100	> 100	> 100
O=[N+]([O-])c1cccc(-c2nnc3nnc4c5ccccc5[nH]c4n23)c1	> 100	> 100	> 100	> 100	> 100	–	> 100	> 100	> 100	> 100	> 100	> 100	> 100	> 100	> 100
COc1ccccc1-c1nnc2nnc3c4ccccc4[nH]c3n12	> 23	> 5	17	20	> 20	–	23	5	> 20	> 17	> 20	> 20	> 23	> 20	> 20
Clc1ccc(-c2nnc3nnc4c5ccccc5[nH]c4n23)cc1	> 100	> 100	> 100	> 100	> 100	–	> 100	> 100	> 100	> 100	> 100	> 100	> 100	> 100	> 100
O=[N+]([O-])c1ccccc1-c1nnc2nnc3c4ccccc4[nH]c3n12	> 100	> 100	> 100	> 100	> 100	–	> 100	> 100	100	> 100	> 100	> 100	> 100	> 100	> 100
Clc1cccc(-c2nnc3nnc4c5ccccc5[nH]c4n23)c1	> 55	> 29	> 100	60	> 60	>1.45	55	29	> 60	69	> 60	> 60	> 55	> 60	> 60
Oc1ccccc1-c1nnc2nnc3c4ccccc4[nH]c3n12	> 100	> 100	> 100	70	> 70	–	> 100	> 100	> 70	> 100	> 70	> 70	> 100	> 70	> 70
Oc1ccc(-c2nnc3nnc4c5ccccc5[nH]c4n23)cc1	> 100	> 100	> 100	> 100	> 100	–	> 100	> 100	> 100	> 100	> 100	> 100	> 100	> 100	> 100
CSc1ccc(-c2nnc3nnc4c5ccccc5[nH]c4n23)cc1	45	> 100	> 100	90	> 90	–	> 100	> 100	> 90	> 100	> 90	> 90	> 100	> 90	> 90
c1ccc(Oc2cccc(-c3nnc4nnc5c6ccccc6[nH]c5n34)c2)cc1	> 100	> 100	> 100	80	> 80	–	100	> 100	> 80	> 100	> 80	> 80	> 100	> 80	> 80
COc1ccc(OC)c(-c2nnc3nnc4c5ccccc5[nH]c4n23)c1	> 30	> 4	12	15	> 15	–	30	4	> 15	> 12	> 15	> 15	> 30	> 15	> 15
